The record followed here is ChEMBL document CHEMBL1147975, “Synthesis, structure, and structure-activity relationship analysis of enamines as potential antibacterials” (2007).

Assay type in all cases: functional
One assay has as its system Escherichia coli. The assay is described as follows: Antibacterial activity against Escherichia coli ATCC 35218 after 24 hrs by MTT method. The note with it: ATCC 35218, 24 h. A general note: Tetrazolium assays rely on reduction of a dye to a coloured formazan, in cell work by metabolically active cells.
In the next assay the test system is Bacillus subtilis. The assay is described as follows: Antibacterial activity against Bacillus subtilis ATCC 6633 after 24 hrs by MTT method. The note with it: ATCC 6633, 24 h.
For a further assay, the system named is Aspergillus niger. The assay is described as follows: Antifungal activity against Aspergillus niger ATCC 16404 after 48 hrs by MTT method. The note with it: ATCC 16404, 48 h.
In the next assay the test system is Pseudomonas fluorescens. As to the kind of experiment: Antibacterial activity against Pseudomonas fluorescens ATCC 13525 after 24 hrs by MTT method. The note with it: ATCC 13525, 24 h.
The next assay relates to Staphylococcus aureus. The assay is described as follows: Antibacterial activity against Staphylococcus aureus ATCC 6538 after 24 hrs by MTT method. The note with it: ATCC 6538, 24 h.
The next assay concerns Candida albicans. As to the kind of experiment: Antifungal activity against Candida albicans ATCC 10231 after 48 hrs by MTT method. To be noted: ATCC 10231, 48 h.
In a further assay the test system is Trichophyton rubrum. The assay is described as follows: Antifungal activity against Trichophyton rubrum ATCC 10218 after 48 hrs by MTT method. The note with it: ATCC 10218, 48 h.

In brackets after ≈: the same amount, converted by molar mass. Where only a bound is given, the exact number is not on record here.

For orientation: MIC means the least concentration at which growth counts as inhibited. For the compound `CCOC(=O)/C(=C/Nc1cc(F)cc(F)c1)c1ccc(OC)cc1`, the MIC with Escherichia coli is more than 50 µg/mL; with Bacillus subtilis, more than 50 µg/mL; in the assay on Aspergillus niger, more than 50 µg/mL; against Pseudomonas fluorescens it was 31.5 µg/mL (≈ 94.5 µM); against Staphylococcus aureus, 22.8 µg/mL (≈ 68.4 µM); against Candida albicans, more than 50 µg/mL.

Turning to `CCOC(=O)/C(=C\Nc1ccc(O)cc1)c1ccc(OC)cc1`, the MIC against Escherichia coli was more than 50 µg/mL; against Bacillus subtilis, more than 50 µg/mL; against Aspergillus niger, more than 50 µg/mL; in the assay on Pseudomonas fluorescens it was more than 50 µg/mL; against Staphylococcus aureus it was 7.9 µg/mL (≈ 25.2 µM); against Candida albicans, more than 50 µg/mL.

As to `CCOC(=O)/C(=C\Nc1ccc(Cl)cc1)c1ccc(Cl)cc1`, the MIC in the assay with Escherichia coli was more than 50 µg/mL; against Bacillus subtilis it was more than 50 µg/mL; with Aspergillus niger it was more than 50 µg/mL; in the assay on Pseudomonas fluorescens, 32.2 µg/mL (≈ 95.8 µM); against Staphylococcus aureus, more than 50 µg/mL; against Candida albicans, more than 50 µg/mL.

Turning to `CCOC(=O)/C(=C\Nc1ccc(C)cc1)c1ccc(Cl)cc1`, the minimum inhibitory concentration (MIC) in the assay with Escherichia coli, against Bacillus subtilis, with Aspergillus niger, with Pseudomonas fluorescens, against Staphylococcus aureus and in the assay with Candida albicans was more than 50 µg/mL throughout.

As to `CCOC(=O)/C(=C/Nc1cc(Br)c(OC)c(Br)c1)c1ccc(OC)cc1`, the minimal inhibitory concentration (MIC) was more than 50 µg/mL against Escherichia coli; more than 50 µg/mL against Bacillus subtilis; more than 50 µg/mL in the assay with Aspergillus niger; 33 µg/mL (≈ 68 µM) with Pseudomonas fluorescens; more than 50 µg/mL in the assay with Staphylococcus aureus; more than 50 µg/mL in the assay with Candida albicans.

As to `CCOC(=O)/C(=C\Nc1cc(OC)cc(OC)c1)c1ccc(OC)cc1`, the MIC against Escherichia coli is more than 50 µg/mL; against Bacillus subtilis it was more than 50 µg/mL; in the assay on Aspergillus niger it was more than 50 µg/mL; against Pseudomonas fluorescens it was 30 µg/mL (≈ 83.9 µM); against Staphylococcus aureus it was 43.5 µg/mL (≈ 122 µM); in the assay on Candida albicans, more than 50 µg/mL.

Regarding `CCOC(=O)/C(=C/Nc1cc(OC)cc(OC)c1)c1ccc(OC)cc1`, the minimum inhibitory concentration (MIC) in the assay on Escherichia coli is 41.5 µg/mL (≈ 116 µM); against Bacillus subtilis it was more than 50 µg/mL; against Aspergillus niger, more than 50 µg/mL; in the assay with Pseudomonas fluorescens it was 25.2 µg/mL (≈ 70.5 µM); against Staphylococcus aureus, 15.8 µg/mL (≈ 44.2 µM); against Candida albicans, more than 50 µg/mL.

As for `CCOC(=O)/C(=C/Nc1ccc(C)cc1)c1ccc(Cl)cc1`, the MIC in the assay on Escherichia coli was more than 50 µg/mL; with Bacillus subtilis, more than 50 µg/mL; in the assay with Pseudomonas fluorescens, more than 50 µg/mL; in the assay on Staphylococcus aureus, 0.9 µg/mL (≈ 2.85 µM); against Candida albicans, more than 50 µg/mL.

Regarding `CCOC(=O)/C(=C/Nc1cc(Cl)cc(Cl)c1)c1ccc(OC)cc1`, the MIC in the assay on Escherichia coli was 42.2 µg/mL (≈ 115 µM); against Bacillus subtilis, 42.2 µg/mL (≈ 115 µM); in the assay on Aspergillus niger, more than 50 µg/mL; in the assay with Pseudomonas fluorescens, 27.8 µg/mL (≈ 75.9 µM); in the assay on Staphylococcus aureus it was 20.2 µg/mL (≈ 55.2 µM); in the assay with Candida albicans, more than 50 µg/mL.

For the compound `CCOC(=O)/C(=C\Nc1cc(Br)c(OC)c(Br)c1)c1ccc(OC)cc1`, the minimum inhibitory concentration (MIC) against Escherichia coli, against Bacillus subtilis, in the assay on Aspergillus niger, against Pseudomonas fluorescens, against Trichophyton rubrum and against Staphylococcus aureus was more than 50 µg/mL in each case. In the assay on Candida albicans, this compound displayed an MIC of more than 50 µg/mL.

Take `CCOC(=O)/C(=C\Nc1cc(Cl)cc(Cl)c1)c1ccc(Cl)cc1`: the MIC against Escherichia coli, against Bacillus subtilis, against Aspergillus niger, in the assay on Pseudomonas fluorescens, in the assay with Staphylococcus aureus and against Candida albicans was more than 50 µg/mL each time.

In the case of `CCOC(=O)/C(=C/Nc1cc(Cl)cc(Cl)c1)c1ccc(Cl)cc1`, the MIC is more than 50 µg/mL in the assay with Escherichia coli; more than 50 µg/mL with Bacillus subtilis; more than 50 µg/mL against Aspergillus niger; 25.7 µg/mL (≈ 69.3 µM) in the assay with Pseudomonas fluorescens; 1.1 µg/mL (≈ 2.97 µM) in the assay with Staphylococcus aureus; more than 50 µg/mL in the assay with Candida albicans.

With `CCOC(=O)/C(=C\Nc1ccccc1Cl)c1ccc(Cl)cc1`, the MIC in the assay on Escherichia coli is 42.5 µg/mL (≈ 126 µM); in the assay on Bacillus subtilis, more than 50 µg/mL; with Aspergillus niger, more than 50 µg/mL; against Pseudomonas fluorescens, more than 50 µg/mL; with Staphylococcus aureus, more than 50 µg/mL; with Candida albicans, more than 50 µg/mL.

For `CCOC(=O)/C(=C/Nc1ccc(O)cc1)c1ccc(OC)cc1`, the minimum inhibitory concentration (MIC) with Escherichia coli was more than 50 µg/mL; in the assay with Bacillus subtilis, more than 50 µg/mL; in the assay on Aspergillus niger it was more than 50 µg/mL; in the assay with Pseudomonas fluorescens, more than 50 µg/mL; against Staphylococcus aureus, 3.8 µg/mL (≈ 12.1 µM); in the assay with Candida albicans, more than 50 µg/mL.

For the compound `CCOC(=O)/C(=C/Nc1ccccc1Cl)c1ccc(Cl)cc1`, the MIC in the assay with Escherichia coli is 38.8 µg/mL (≈ 115 µM); against Bacillus subtilis, 43.8 µg/mL (≈ 130 µM); in the assay on Aspergillus niger, more than 50 µg/mL; in the assay on Pseudomonas fluorescens, 35.3 µg/mL (≈ 105 µM); in the assay on Staphylococcus aureus it was more than 50 µg/mL; with Candida albicans, more than 50 µg/mL.

`CCOC(=O)/C(=C\Nc1cc(F)cc(F)c1)c1ccc(Cl)cc1`: the MIC against Escherichia coli, against Bacillus subtilis, in the assay on Aspergillus niger, against Pseudomonas fluorescens, in the assay with Staphylococcus aureus and in the assay on Candida albicans was more than 50 µg/mL in each case.

In the case of `CCOC(=O)/C(=C/Nc1cc(F)cc(F)c1)c1ccc(Cl)cc1`, the minimal inhibitory concentration (MIC) with Escherichia coli was more than 13.5 µg/mL; in the assay with Bacillus subtilis, 48.2 µg/mL (≈ 143 µM); against Aspergillus niger, more than 50 µg/mL; against Pseudomonas fluorescens, 31.5 µg/mL (≈ 93.3 µM); against Staphylococcus aureus, 1.9 µg/mL (≈ 5.63 µM); in the assay on Candida albicans, more than 50 µg/mL.

For `CCOC(=O)/C(=C/Nc1ccc(Br)cc1)c1ccc(Cl)cc1`, the minimal inhibitory concentration (MIC) with Escherichia coli, against Bacillus subtilis, with Aspergillus niger, against Pseudomonas fluorescens, with Staphylococcus aureus and in the assay on Candida albicans was more than 50 µg/mL throughout.

As to `CCOC(=O)/C(=C\Nc1cc(Cl)cc(Cl)c1)c1ccc(OC)cc1`, the MIC against Escherichia coli was more than 50 µg/mL; with Bacillus subtilis it was more than 50 µg/mL; against Aspergillus niger, more than 50 µg/mL; in the assay on Pseudomonas fluorescens, 33.8 µg/mL (≈ 92.3 µM); in the assay on Staphylococcus aureus it was more than 50 µg/mL; against Candida albicans, more than 50 µg/mL.

On to `CCOC(=O)/C(=C\Nc1ccc(Br)cc1)c1ccc(Cl)cc1`, for which the MIC against Escherichia coli, with Bacillus subtilis, against Aspergillus niger, against Pseudomonas fluorescens, against Staphylococcus aureus and against Candida albicans was more than 50 µg/mL each time.

Take `CCOC(=O)/C(=C/Nc1ccc(Br)cc1)c1ccc(OC)cc1`: the MIC against Escherichia coli was more than 50 µg/mL; against Bacillus subtilis it was more than 50 µg/mL; in the assay with Aspergillus niger it was more than 50 µg/mL; against Pseudomonas fluorescens, 31.7 µg/mL (≈ 84.3 µM); with Staphylococcus aureus it was more than 50 µg/mL; against Candida albicans it was more than 50 µg/mL.

Take `CCOC(=O)/C(=C\Nc1ccc(Br)cc1)c1ccc(OC)cc1`: the MIC against Escherichia coli, against Bacillus subtilis, with Aspergillus niger, in the assay on Pseudomonas fluorescens, in the assay on Staphylococcus aureus and in the assay with Candida albicans was more than 50 µg/mL each time.

With `CCOC(=O)/C(=C/Nc1ccc(Cl)cc1)c1ccc(Cl)cc1`, the minimal inhibitory concentration (MIC) against Escherichia coli was 42.5 µg/mL (≈ 126 µM); in the assay on Bacillus subtilis it was 42 µg/mL (≈ 125 µM); against Aspergillus niger, more than 50 µg/mL; in the assay on Pseudomonas fluorescens it was 29.5 µg/mL (≈ 87.7 µM); against Staphylococcus aureus, more than 50 µg/mL; against Candida albicans, more than 50 µg/mL.

As to `CCOC(=O)/C(=C\Nc1cc(F)cc(F)c1)c1ccc(OC)cc1`, the MIC in the assay on Escherichia coli, with Bacillus subtilis, in the assay on Aspergillus niger, with Pseudomonas fluorescens, in the assay with Staphylococcus aureus and against Candida albicans was more than 50 µg/mL each time.

`NC[C@H]1O[C@H](O[C@H]2[C@H](O)[C@@H](O[C@H]3O[C@H](CO)[C@@H](O)[C@H](N)[C@H]3O)[C@H](N)C[C@@H]2N)[C@H](O)[C@@H](O)[C@@H]1O` [KANAMYCIN]: the minimal inhibitory concentration (MIC) turned out to be 3.9 µg/mL (≈ 8.05 µM) with Escherichia coli, 0.39 µg/mL (≈ 0.805 µM) against Bacillus subtilis, 3.9 µg/mL (≈ 8.05 µM) in the assay with Pseudomonas fluorescens and 1 µg/mL (≈ 2.06 µM) with Staphylococcus aureus.
